How the values were obtained:
[1] = Metabolic stability in rat liver microsomes assessed as compound remaining at […] after 30 mins; format: ADME, Microsome; conditions: read-out: Stability
Cannabinoid receptor 2 [2] = biological target: T1, Cannabinoid receptor 2 (Homo sapiens, UniProt P34972); test: Displacement of [3H][…] from human cloned CB2 receptor after 60 mins by scintillation spectroscopy
[3] = Metabolic stability in human liver microsomes assessed as compound remaining at […] after 30 mins; format: ADME, Microsome; conditions: read-out: Stability
Cannabinoid receptor 2 [4] = biological target: T2, Cannabinoid receptor 2 (Rattus norvegicus, UniProt Q9QZN9); test: Agonist activity at CB2 receptor in rat cerebellar membrane assessed as WIN-55212-2-stimulated [35S]GTPgammaS binding after 6 hrs by scintillation spectrometry; format: functional, cell membranes, Cerebellum
T2 sequence (Q9QZN9 whole entry): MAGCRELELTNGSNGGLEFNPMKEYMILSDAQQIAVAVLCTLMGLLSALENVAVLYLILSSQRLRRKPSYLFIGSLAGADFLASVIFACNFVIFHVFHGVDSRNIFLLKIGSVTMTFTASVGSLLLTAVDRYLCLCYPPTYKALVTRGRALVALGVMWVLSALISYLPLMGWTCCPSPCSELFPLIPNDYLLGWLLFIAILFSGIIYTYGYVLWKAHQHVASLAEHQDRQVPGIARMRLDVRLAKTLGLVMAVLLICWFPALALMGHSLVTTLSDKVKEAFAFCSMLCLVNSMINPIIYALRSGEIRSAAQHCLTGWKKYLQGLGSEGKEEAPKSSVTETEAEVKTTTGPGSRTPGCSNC

Cannabinoid receptor 1 [5] = biological target: T3, Cannabinoid receptor 1 (Homo sapiens, UniProt P21554); test: Inhibition of [3H][…] binding to human cloned CB1 receptor at 10 uM after 120 mins by scintillation spectroscopy
T3 sequence (P21554 whole entry): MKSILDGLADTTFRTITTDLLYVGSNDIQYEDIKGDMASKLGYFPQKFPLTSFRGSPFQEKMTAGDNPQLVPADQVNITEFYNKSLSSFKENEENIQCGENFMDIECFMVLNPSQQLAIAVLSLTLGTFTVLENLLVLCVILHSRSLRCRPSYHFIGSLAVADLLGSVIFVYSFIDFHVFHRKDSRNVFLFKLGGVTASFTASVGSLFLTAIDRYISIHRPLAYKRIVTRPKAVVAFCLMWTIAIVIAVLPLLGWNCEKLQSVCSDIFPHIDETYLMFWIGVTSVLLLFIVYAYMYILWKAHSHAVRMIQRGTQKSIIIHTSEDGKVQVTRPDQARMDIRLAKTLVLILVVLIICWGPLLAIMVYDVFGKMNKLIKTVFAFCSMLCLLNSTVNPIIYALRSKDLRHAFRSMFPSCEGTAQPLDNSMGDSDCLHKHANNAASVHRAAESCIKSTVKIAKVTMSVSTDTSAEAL

Cannabinoid receptor 2 [6] = biological target: T1, Cannabinoid receptor 2; test: Inhibition of [3H][…] binding to human cloned CB2 receptor at 10 uM after 60 mins by scintillation spectroscopy
Homo sapiens = species: Homo sapiens; test: Selectivity ratio of Ki for human cloned CB1 receptor to Ki for human cloned CB2 receptor
Cannabinoid receptor 1 [7] = biological target: T3, Cannabinoid receptor 1; test: Displacement of [3H][…] from human cloned CB1 receptor after 120 mins by scintillation spectroscopy
Canis familiaris [8] = test: AUC (0 to infinity) in Beagle dog at 10 mg/kg, po administered as single dose; format: ADME, organism-based, Canis lupus familiaris, Plasma; design: time infinity, dose 10 mg/kg, route oral; conditions: in vivo
[9] = AUC (0 to infinity) in Sprague-Dawley rat at 10 mg/kg, po administered as single dose; format: ADME, organism-based; design: time infinity, dose 10 mg/kg, route oral; conditions: plasma
[10] = Tmax in Sprague-Dawley rat at 10 mg/kg, po administered as single dose; format: ADME, organism-based; design: dose 10 mg/kg, route oral; conditions: in vivo
[11] = Half life in Beagle dog at 10 mg/kg, po administered as single dose; format: ADME, organism-based, Canis lupus familiaris; design: dose 10 mg/kg, route oral; conditions: in vivo
[12] = Cmax in Sprague-Dawley rat at 10 mg/kg, po administered as single dose; format: ADME, organism-based; design: dose 10 mg/kg, route oral; conditions: in vivo
Canis familiaris [13] = test: Oral bioavailability in Beagle dog at 10 mg/kg, po administered as single dose; format: ADME, organism-based, Canis lupus familiaris; conditions: in vivo
[14] = Volume of distribution at steady state in Sprague-Dawley rat at 1 mg/kg, iv administered as single dose; format: ADME, organism-based; design: dose 1 mg/kg, route intravenous; conditions: in vivo, read-out: Vdss
[15] = Systemic plasma clearance in Beagle dog at 1 mg/kg, iv administered as single dose; format: ADME, organism-based, Canis lupus familiaris; design: dose 1 mg/kg, route intravenous
[16] = Volume of distribution at steady state in Beagle dog at 1 mg/kg, iv administered as single dose; format: ADME, organism-based, Canis lupus familiaris; design: dose 1 mg/kg, route intravenous; conditions: in vivo, read-out: Vdss
[17] = Oral bioavailability in Sprague-Dawley rat at 10 mg/kg administered as single dose; format: ADME, organism-based; conditions: in vivo
Rattus norvegicus = test: Antiallodynic activity against neuropathic pain in L5 spinal nerve ligated rat model assessed as reduction of allodynia at 100 mg/kg, po administered 9 days after surgery relative to control; format: functional; design: scale not given: the % may be the effect or the level left
[18] = Tmax in Beagle dog at 10 mg/kg, po administered as single dose; format: ADME, organism-based, Canis lupus familiaris; design: dose 10 mg/kg, route oral; conditions: in vivo
[19] = AUC (0 to infinity) in Sprague-Dawley rat at 1 mg/kg, iv administered as single dose; format: ADME, organism-based; design: time infinity, dose 1 mg/kg, route intravenous; conditions: plasma
[20] = Half life in Beagle dog at 1 mg/kg, iv administered as single dose; format: ADME, organism-based, Canis lupus familiaris; design: dose 1 mg/kg, route intravenous; conditions: in vivo
Canis familiaris [21] = test: Area under curve (0 to infinity) in Beagle dog at 1 mg/kg, iv administered as single dose; format: ADME, organism-based, Canis lupus familiaris; design: time infinity, dose 1 mg/kg, route intravenous; conditions: in vivo
[22] = Cmax in Beagle dog at 10 mg/kg, po administered as single dose; format: ADME, organism-based, Canis lupus familiaris; design: dose 10 mg/kg, route oral; conditions: in vivo
[23] = Half life in Sprague-Dawley rat at 1 mg/kg, iv administered as single dose; format: ADME, organism-based; design: dose 1 mg/kg, route intravenous; conditions: in vivo
[24] = Half life in Sprague-Dawley rat at 10 mg/kg, po administered as single dose; format: ADME, organism-based; design: dose 10 mg/kg, route oral; conditions: in vivo
[25] = Systemic plasma clearance in Sprague-Dawley rat at 1 mg/kg, iv administered as single dose; format: ADME, organism-based; design: dose 1 mg/kg, route intravenous

T1 sequence (P34972 whole entry): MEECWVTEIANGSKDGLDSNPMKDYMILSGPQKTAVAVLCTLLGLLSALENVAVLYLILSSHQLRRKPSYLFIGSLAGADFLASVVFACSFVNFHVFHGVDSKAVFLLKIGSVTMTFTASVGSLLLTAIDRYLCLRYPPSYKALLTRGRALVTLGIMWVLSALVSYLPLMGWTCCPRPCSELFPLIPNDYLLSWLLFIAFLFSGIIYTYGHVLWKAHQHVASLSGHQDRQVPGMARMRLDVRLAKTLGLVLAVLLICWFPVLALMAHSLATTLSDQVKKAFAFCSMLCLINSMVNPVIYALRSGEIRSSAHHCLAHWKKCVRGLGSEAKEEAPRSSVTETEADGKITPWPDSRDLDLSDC

SMILES	remaining at 0.5 h [1] [%]	Ki (Cannabinoid receptor 2 [2]) [nM]	remaining at 0.5 h [3] [%]	EC50 (Cannabinoid receptor 2 [4]) [nM]	inhibition (Cannabinoid receptor 1 [5]) [%]	Ratio Ki (Homo sapiens)	Ki (Cannabinoid receptor 1 [7]) [nM]	also measured
CCC1(C(=O)Nc2cc(CN3CCOCC3)c(C)cn2)CCCCC1	0	7	0	8.8	36	–	–	–
CCC(C)(C)C(=O)Nc1cnc(C)c(CN2CCOCC2)c1	–	–	–	–	4	–	–	inhibition (Cannabinoid receptor 2 [6]): 46%
CCC(C)(C)C(=O)Nc1ccc(C)c(CN2CCOCC2)n1	–	1800	–	–	28	–	–	–
CCCC(C)(C)C(=O)Nc1cc(CN2CCOCC2)c(C)cn1	–	5.3	15	4.1	–	330	1800	–
CCC(C)(C)C(=O)Nc1cc(CN2CCOCC2)c(C)cc1C	68	–	–	–	18	–	–	–
CCC1(C(=O)Nc2cc(CN3CCOCC3)c(C)cn2)CCCC1	–	13	12	13	–	85	1100	–
CCC(C)(C)C(=O)Nc1cc(CN2CCOCC2)c(C)cn1	43	24	64	41	–	160	3800	AUC (Canis familiaris [8]): 977 ng·h/mL; AUC(0-inf) [9]: 893 ng·h/mL; Tmax [10]: 2 h; half-life [11]: 1.1 h; Cmax [12]: 185 ng/mL; F (Canis familiaris [13]): 29%; Vd [14]: 3.5 L/kg; clearance [15]: 15 mL/min/kg; Vd [16]: 0.6 L/kg; bioavailability [17]: 57%; Activity (Rattus norvegicus): 271%; Tmax [18]: 0.5 h; AUC(0-inf) [19]: 158 ng·h/mL; half-life [20]: 1.4 h; AUC (Canis familiaris [21]): 1127 ng·h/mL; Cmax [22]: 535 ng/mL; half-life [23]: 0.5 h; half-life [24]: 2.1 h; clearance [25]: 96.7 mL/min/kg
CCC(C)(C)C(=O)Nc1cc(CN2CCOCC2)c(C#N)cn1	–	100	–	200	11	–	–	–
CCC(C)(C)C(=O)Nc1cc(CN2CCOCC2)c(N)cn1	–	870	–	–	10	–	–	–
Cc1cnc(NC(=O)C2(C)CCCCC2C)cc1CN1CCOCC1 (centres undefined)	0	1.9	1	2.8	–	1300	2500	–
CCC(C)(C)C(=O)Nc1ccc(C)c(CN2CCOCC2)c1	2.2	–	–	–	4	–	–	–
Cc1cnc(NC(=O)C(C)(C)C)cc1CN1CCOCC1	–	81	–	70	37	–	–	–
CCC(C)(C)C(=O)Nc1cc(CN2CCOCC2)cc(C)n1	–	67	–	260	0	–	–	–
CCc1cnc(NC(=O)C(C)(C)CC)cc1CN1CCOCC1	29	7.9	34	9.6	–	550	4300	–
CCC1(C(=O)Nc2cc(CN3CCOCC3)c(C)cn2)CC1	–	63	–	62	25	–	–	–
CCC1(C(=O)Nc2cc(CN3CCOCC3)c(C)cn2)CCC1	48	45	51	140	13	–	–	–
